Data as given in ChEMBL document CHEMBL2074008, “Structural determinants of P-glycoprotein-mediated transport of glucocorticoids” (Pharm Res, 2003).

Target: ATP-dependent translocase ABCB1 (Homo sapiens, UniProt P08183)
Assay: TP_TRANSPORTER: transepithelial transport in MDR1-expressing LLC-PK1 cells
Format: functional, cell-based
Details: pig

Chain of ATP-dependent translocase ABCB1 (P08183 whole entry): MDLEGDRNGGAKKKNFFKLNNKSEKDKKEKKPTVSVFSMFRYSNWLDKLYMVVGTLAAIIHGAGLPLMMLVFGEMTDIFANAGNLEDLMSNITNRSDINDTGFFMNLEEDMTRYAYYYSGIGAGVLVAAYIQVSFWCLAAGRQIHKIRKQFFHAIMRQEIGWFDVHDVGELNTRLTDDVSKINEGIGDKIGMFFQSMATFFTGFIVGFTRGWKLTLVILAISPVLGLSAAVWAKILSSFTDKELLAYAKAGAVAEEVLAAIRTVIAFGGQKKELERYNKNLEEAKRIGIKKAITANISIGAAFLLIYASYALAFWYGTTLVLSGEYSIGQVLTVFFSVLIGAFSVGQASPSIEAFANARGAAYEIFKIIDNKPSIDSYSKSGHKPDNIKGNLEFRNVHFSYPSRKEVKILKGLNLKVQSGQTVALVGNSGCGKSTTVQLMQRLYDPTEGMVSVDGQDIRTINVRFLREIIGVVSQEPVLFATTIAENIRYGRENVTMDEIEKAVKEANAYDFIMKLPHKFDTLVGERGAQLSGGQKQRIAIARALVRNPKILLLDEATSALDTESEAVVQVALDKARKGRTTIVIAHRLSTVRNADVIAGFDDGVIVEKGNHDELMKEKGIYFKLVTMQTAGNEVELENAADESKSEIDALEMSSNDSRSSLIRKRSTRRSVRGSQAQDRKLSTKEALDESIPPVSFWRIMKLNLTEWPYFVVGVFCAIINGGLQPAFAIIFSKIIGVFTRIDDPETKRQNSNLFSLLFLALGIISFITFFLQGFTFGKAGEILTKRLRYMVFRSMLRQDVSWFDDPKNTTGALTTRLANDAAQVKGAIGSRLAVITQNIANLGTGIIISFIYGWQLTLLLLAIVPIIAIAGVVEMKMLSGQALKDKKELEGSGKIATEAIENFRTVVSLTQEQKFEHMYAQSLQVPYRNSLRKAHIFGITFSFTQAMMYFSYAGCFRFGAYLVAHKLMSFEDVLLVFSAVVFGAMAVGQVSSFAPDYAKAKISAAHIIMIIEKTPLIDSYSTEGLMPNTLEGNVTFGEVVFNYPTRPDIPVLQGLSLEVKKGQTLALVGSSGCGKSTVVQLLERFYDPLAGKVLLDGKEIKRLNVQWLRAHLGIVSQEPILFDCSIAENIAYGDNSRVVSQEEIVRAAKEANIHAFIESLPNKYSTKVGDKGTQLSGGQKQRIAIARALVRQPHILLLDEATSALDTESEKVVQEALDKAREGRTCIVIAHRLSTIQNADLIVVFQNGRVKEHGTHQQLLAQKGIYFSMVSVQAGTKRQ

Row | Compound | Activity
1 | C[C@]12CCC(=O)C=C1[C@H](O)C[C@@H]1[C@@H]2[C@@H](O)C[C@@]2(C)[C@H]1CC[C@]2(O)C(=O)CO | substrate [+]
2 | C[C@]12CCC(=O)C=C1[C@@H](O)C[C@@H]1[C@@H]2[C@@H](O)C[C@@]2(C)[C@H]1CC[C@]2(O)C(=O)CO | substrate [+]
3 | C[C@]12CCC(=O)C=C1CC[C@@H]1[C@@H]2C(=O)C[C@@]2(C)[C@H]1CC[C@]2(O)C(=O)CO [CORTISONE] | substrate [+]
4 | C[C@]12CCC(=O)C=C1CC[C@@H]1[C@@H]2[C@@H](O)C[C@@]2(C)[C@H]1CC[C@]2(O)C(=O)CO [HYDROCORTISONE] | substrate [+]

Second part, the molecule after the results:

Row | Activity | Compound
5 | substrate [+] | C[C@H]1C[C@H]2[C@@H]3CCC4=CC(=O)C=C[C@]4(C)[C@@]3(F)[C@@H](O)C[C@]2(C)[C@@]1(O)C(=O)CO [BETAMETHASONE]
6 | substrate [+] | C[C@@H]1C[C@H]2[C@@H]3CCC4=CC(=O)C=C[C@]4(C)[C@@]3(F)[C@@H](O)C[C@]2(C)[C@@]1(O)C(=O)CO [DEXAMETHASONE]
7 | substrate [+] | C[C@H]1C[C@@H]2[C@H]([C@@H](O)C[C@@]3(C)[C@H]2CC[C@]3(O)C(=O)CO)[C@@]2(C)C=CC(=O)C=C12 [METHYLPREDNISOLONE]
8 | substrate [+] | C[C@]12C=CC(=O)C=C1CC[C@@H]1[C@@H]2[C@@H](O)C[C@@]2(C)[C@H]1CC[C@]2(O)C(=O)CO [PREDNISOLONE]
9 | substrate [+] | C[C@]12C=CC(=O)C=C1CC[C@@H]1[C@@H]2C(=O)C[C@@]2(C)[C@H]1CC[C@]2(O)C(=O)CO [PREDNISONE]
